The record followed here is patent US5639906A, “Fluorescent and NMR sensitive pH indicators” (The United States of America as represented by the …, priority 1994, dated 1997).

“Also recorded” adds a separate entry of the source.

Data set [1] can be described thus: 19F NMR pH titration of fluorinated indicators. It is filed as physicochemical. To be noted: for pK (theoretical titration curve, FIG. 2): 19F shift as a function of pH; for δ1 (limiting 19F shift difference of theoretical curve, FIG. 2) / δ2 (limiting 19F shift difference of theoretical curve, FIG. 2): shift difference between the two fluorine resonances. The source says: The sample also contained Sodium Flouride as an internal chemical shift standard.
The shift for 5F NEAP-1 is referenced to the tetrafluorophthalate ^19 F resonance, while the data for 5F NEAP-2 and 5F NEAP-3 correspond to the shift differences between the two fluorine resonances. The theoretical curves correspond to: δ1 =35.6 ppm, δ2 24.7 ppm, pK=6.85 for 5F NEAP-1; δ1 =10.3 ppm, δ2 =-0.8 ppm, pK=6.6 for 5F NEAP-2; and δ1 =24.1, δ2 =13.4, pK=6.8 for 5F NEAP-3.
The magnitude of this shift, however, is insignificant in comparison to the 11 ppm titration shift of the indicator. In any event, the magnitude of this shift may be determined and corrected. In alternate embodiments, for an indicator such as NEAP-3 which contain a second fluorine to serve as a chemical shift reference both fluorines will experience a similar intracellular shift, making correction unnecessary. There is also exchange broadening of the resonance, which becomes more significant at higher magnetic field strengths. In general, the degree of broadening depends on the dissociation rate constant of the proton from the indicator. This rate is dependent on the particular indicator, on the temperature, and on the composition of the solution in which the indicator is placed. […] If the exchange is sufficiently rapid on the NMR time scale, i.e., the dissociation rate constant of the protonated indicator k-1 >>πΔv/√ 2, where Δv is the chemical shift difference of the resonance under study between the protonated and unprotonated forms of the indicator, then the observed chemical shift can be used to determine the intracellular pH according to the relation: [formula] where pK is the pK of the indicator, δo is the observed chemical shift, and δU and δP are the shifts of the unprotonated and fully protonated forms of the indicator, respectively. Although the above equation is expected to be generally adequate, at very high fields and low temperatures, the exchange might become slow enough to require a correction, as described, for example, in London, J. Magn. Reson. Series A 104, 190-196 (1993).

Data set [2] has as its system human erythrocytes. The data set can be described thus: pH measurement in human erythrocytes using 19F-NMR. It is filed as cell-based. Here is the method:
(§1) FIGS. 3A and 3B show the ^19 F NMR spectra of human erythrocytes loaded with 5F NEAP-1 acetoxymethyl ester suspended in a solution containing 120 mM sodium chloride (NaCl) and 20 mM tris-[N-(2-hydroxyethyl)piperazine-N'-(2-ethanesulfonic acid)] ("tris-HEPES"). Tetrafluorophthalate ("TFPH") is also included as a chemical shift standard. […] The resonance associated with intracellular NEAP is denoted as "INTRA"; the resonance associated with extracellular NEAP is denoted as "EXTRA".
According to the present invention, intracellular pH can be determined using ^19 F NMR spectroscopy of cells containing a compound of Formula I or II. Measurements have been carried out on several physiological systems of interest, including, for example, human erythrocytes and perfused rat heart. The ^19 F NMR shifts of 5F NEAP-1, 5F NEAP-2, or 5F NEAP-3 provide information which is directly interpretable in terms of the cytosolic pH. These measurements can be made using any standard pulsed NMR spectrometer equipped with a fluorine NMR probe. Typically, at least 100 transients are required for the measurements.
III. pH Measurement in Human Erythrocytes Using ^19 F-NMR
(§2) As an illustration of the use of the current invention, the fluorinated indicator 5F NEAP-1 is used to determine the intra- and extracellular pH in a suspension of human erythrocytes. […] Based on the chemical shift difference between the NEAP fluorine resonance and the standard, an intracellular pH value of 7.3 for this preparation is determined. Subsequently, some additional 5F NEAP-1 was added as the free acid. […] It is interesting to note that the extracellular resonance is somewhat broader than the intracellular resonance. […] An extracellular pH value of 7.0 is determined from the shift (this situation is somewhat unusual since in more typical physiological preparations the intracellular pH is lower than the extracellular pH). As noted in the above sections, small errors which result from the intracellular shift displacement of 0.1-0.3 ppm, can be, but have not been accounted for. […]

The subject of data set [3] is human erythrocytes. The data set can be described thus: Membrane crossing of extracellular indicator in human erythrocyte suspension (19F NMR). It is filed as in vitro ADME. To be noted: free acid added extracellularly. Here is the method:
as §1, §2

[4] abbreviates: referenced to the tetrafluorophthalate 19F resonance.

As to `CCN(CC(=O)O)c1ccc(F)cc1OCCOc1ccc(N(CC(=O)O)CC(=O)O)cc1F` [5F NEAP-3, 1-(N-Ethylamino-5-fluorophenoxy)-2-(2-fluoro-4-aminophenoxy)ethane, N,N',N'-triacetic acid], the “pK (theoretical titration curve, FIG. 2)” value in data set [1] is given as 6.8. In addition, the “pH sensitivity of the fluorine resonances” value in data set [1] (FIG. 1) is “one of the fluorine resonances is pH sensitive, and the second is almost completely pH insensitive”. Besides, in data set [1] (unit not given), the “δ1 (limiting 19F shift difference of theoretical curve, FIG. 2)” value was 24.1 and the “δ2 (limiting 19F shift difference of theoretical curve, FIG. 2)” value was found to be 13.4.

As to `CCN(CC(=O)O)c1ccc(F)cc1OCC(=O)O` [5F NEAP-1, N-ethyl-2-amino-5-fluorophenol-N,O-diacetic acid], the “extracellular pH determined with indicator” value in the data set with human erythrocytes [2] (free acid added to suspension, TFPH standard) turned out to be 7.0. Besides, in the data set on human erythrocytes [2] (intracellular vs extracellular resonance), the “difference between intra- and extracellular pH giving well resolved NMR resonances” value was 0.3 pH unit. For the same compound, the “intracellular pH determined with indicator” value in the data set with human erythrocytes [2] (loaded 1 hour with acetoxymethyl ester, 120 mM NaCl, 20 mM tris-HEPES, TFPH standard) is on record as 7.3. In addition, in data set [1], the “downfield 19F shift of the para-fluorine upon protonation of the nitrogen (titration shift)” value is “about 11 ppm” and the “pK (theoretical titration curve, FIG. 2)” value is 6.85. For the same compound, the pK in data set [1] (as stated in summary) is on record as 6.8. Moreover, in data set [1] (setting [4]), the “δ1 (limiting 19F shift of theoretical curve, FIG. 2)” value is 35.6 ppm and the “δ2 (limiting 19F shift of theoretical curve, FIG. 2)” value stood at 24.7 ppm. Also, the “crossing of the cell membrane” value in the data set with human erythrocytes [3] is recorded as “will not readily cross the cell membrane; also recorded: does not cross the cellular membrane in appreciable amounts”.

Consider `CCN(CC(=O)O)c1ccc(F)cc1OCc1ccc(C(=O)O)cc1F` [5F NEAP-2, N-Ethyl-2-(2-fluoro-4-carboxybenzyloxy)-4-fluoroaniline-N-acetic acid], for which, in data set [1], the “pK (theoretical titration curve, FIG. 2)” value was found to be 6.6; the “δ1 (limiting 19F shift difference of theoretical curve, FIG. 2)” value is given as 10.3 ppm; the “δ2 (limiting 19F shift difference of theoretical curve, FIG. 2)” value is reported as -0.8 ppm.
